# Assay results: publication PMC9283524 (Nature Communications, 2022)
# Values joined by “and” are separate entries in the source; they are usually repeats but may differ in a detail not shown here. Identical values can stand only once.
# How the values were obtained:
# [1] = system: β1-AR mutants of residues that interact with Gs; experiment: cAMP assay, dose-response, summary over mutants of Gs-interacting residues; format: cell-based, turkey; settings: range over mutants, Fig. 5c,d
# wild-type turkey β1-AR [2] = target: T1, wild-type turkey β1-AR (Meleagris gallopavo, UniProt P07700); experiment: cAMP assay, time course, transfected CHO cells; format: cell-based; settings: for cAMP, time course: WT
# T1 sequence (P07700 whole entry): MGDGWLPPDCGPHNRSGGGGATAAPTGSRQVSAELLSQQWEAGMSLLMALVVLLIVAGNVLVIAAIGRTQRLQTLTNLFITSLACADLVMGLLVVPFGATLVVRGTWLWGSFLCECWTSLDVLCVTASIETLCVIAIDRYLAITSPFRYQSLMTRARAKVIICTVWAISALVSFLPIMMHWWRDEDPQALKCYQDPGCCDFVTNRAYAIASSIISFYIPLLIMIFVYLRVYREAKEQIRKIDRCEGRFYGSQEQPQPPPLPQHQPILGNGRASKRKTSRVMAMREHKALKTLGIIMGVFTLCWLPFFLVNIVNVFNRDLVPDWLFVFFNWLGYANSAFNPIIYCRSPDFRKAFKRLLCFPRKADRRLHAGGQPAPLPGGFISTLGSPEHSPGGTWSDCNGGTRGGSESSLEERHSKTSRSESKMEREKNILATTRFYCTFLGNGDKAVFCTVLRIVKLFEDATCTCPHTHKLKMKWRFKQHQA
# Method: CHO cells (transfected with a control empty vector or wild-type or mutant turkey β1-AR) were plated onto six-well plates, and were pre-incubated with culture medium buffered with 0.5 mM IBMX for 30 min at 37 °C[20]. […] After culture medium removal, cells were treated with 0.1 M HCl for 10 minutes at room temperature. After centrifugation, the supernatant was used for cAMP quantification using the Direct Cyclic AMP Enzyme Immunoassay kit (Enzo Life Sciences). […] The cAMP assays were repeated three times, and the data are represented as mean ± SD of the three independent experiments. The analysis was done using the log(agonist) vs. response function of Prism 8 (GraphPad)[20].
# wild-type turkey β1-AR [3] = target: T1, wild-type turkey β1-AR; settings: cited from earlier work
structure (smiles),measurement,setting,value
"CC(CCc1ccc(O)cc1)NCCc1ccc(O)c(O)c1 (centres unmarked) [Dobutamine, dobutamine]",change of EC50 by β1-AR mutations,[1],2 to 7 fold
same,reduction of the cAMP response by β1-AR mutations,[1],17–44%
same,"cAMP, time course",wild-type turkey β1-AR [2]; 0 min,34 and 32 and 33
same,"cAMP, time course",wild-type turkey β1-AR [2]; 0.5 min,35 and 36 and 37
same,"cAMP, time course",wild-type turkey β1-AR [2]; 1 min,57 and 46 and 50
same,"cAMP, time course",wild-type turkey β1-AR [2]; 2 min,132 and 139 and 131
same,"cAMP, time course",wild-type turkey β1-AR [2]; 5 min,335 and 327 and 343
same,"cAMP, time course",wild-type turkey β1-AR [2]; 10 min,326 and 316 and 321
same,"cAMP, time course",wild-type turkey β1-AR [2]; 15 min,273 and 271 and 269
same,"cAMP, time course",wild-type turkey β1-AR [2]; 20 min,179 and 172 and 177
same,"cAMP, time course",wild-type turkey β1-AR [2]; 25 min,125
same,"cAMP signal, time course","wild-type turkey β1-AR [2]; ligand 10^-3 M, time 0 min",30 and 31 and 29
same,"cAMP signal, time course","wild-type turkey β1-AR [2]; ligand 10^-3 M, time 0.5 min",33 and 38 and 31
same,"cAMP signal, time course","wild-type turkey β1-AR [2]; ligand 10^-3 M, time 1 min",63 and 68 and 61
same,"cAMP signal, time course","wild-type turkey β1-AR [2]; ligand 10^-3 M, time 2 min",163 and 166 and 154
same,"cAMP signal, time course","wild-type turkey β1-AR [2]; ligand 10^-4 M, time 0 min",32 and 33 and 28
same,"cAMP signal, time course","wild-type turkey β1-AR [2]; ligand 10^-4 M, time 0.5 min",39 and 41 and 34
same,"cAMP signal, time course","wild-type turkey β1-AR [2]; ligand 10^-4 M, time 1 min",55 and 61
same,"cAMP signal, time course","wild-type turkey β1-AR [2]; ligand 10^-4 M, time 2 min",143 and 151 and 141
same,"cAMP signal, time course","wild-type turkey β1-AR [2]; ligand 10^-5 M, time 0 min",29 and 33 and 31
same,"cAMP signal, time course","wild-type turkey β1-AR [2]; ligand 10^-5 M, time 0.5 min",34 and 38 and 33
same,"cAMP signal, time course","wild-type turkey β1-AR [2]; ligand 10^-5 M, time 1 min",47 and 51 and 49
same,"cAMP signal, time course","wild-type turkey β1-AR [2]; ligand 10^-5 M, time 2 min",133 and 145 and 130
same,"cAMP signal, time course","wild-type turkey β1-AR [2]; ligand 10^-6 M, time 0 min",30 and 27
same,"cAMP signal, time course","wild-type turkey β1-AR [2]; ligand 10^-6 M, time 0.5 min",39 and 37 and 38
same,"cAMP signal, time course","wild-type turkey β1-AR [2]; ligand 10^-6 M, time 1 min",54 and 56 and 55
same,"cAMP signal, time course","wild-type turkey β1-AR [2]; ligand 10^-6 M, time 2 min",124 and 122 and 120
same,"cAMP signal, time course","wild-type turkey β1-AR [2]; ligand 10^-7 M, time 0 min",28 and 33 and 26
same,"cAMP signal, time course","wild-type turkey β1-AR [2]; ligand 10^-7 M, time 0.5 min",34 and 36 and 32
same,"cAMP signal, time course","wild-type turkey β1-AR [2]; ligand 10^-7 M, time 1 min",37 and 41 and 36
same,"cAMP signal, time course","wild-type turkey β1-AR [2]; ligand 10^-7 M, time 2 min",50 and 56
same,"cAMP signal, time course","wild-type turkey β1-AR [2]; ligand 10^-8 M, time 0 min",27 and 28 and 26
same,"cAMP signal, time course","wild-type turkey β1-AR [2]; ligand 10^-8 M, time 0.5 min",31 and 33 and 29
same,"cAMP signal, time course","wild-type turkey β1-AR [2]; ligand 10^-8 M, time 1 min",34 and 37
same,"cAMP signal, time course","wild-type turkey β1-AR [2]; ligand 10^-8 M, time 2 min",43 and 44
same,"cAMP signal, time course","wild-type turkey β1-AR [2]; ligand 10^-9 M, time 0 min",27 and 31 and 26
same,"cAMP signal, time course","wild-type turkey β1-AR [2]; ligand 10^-9 M, time 0.5 min",31 and 36 and 32
same,"cAMP signal, time course","wild-type turkey β1-AR [2]; ligand 10^-9 M, time 1 min",32 and 34 and 27
same,"cAMP signal, time course","wild-type turkey β1-AR [2]; ligand 10^-9 M, time 2 min",37 and 40 and 35
same,time-dependent cAMP response (phases),"wild-type turkey β1-AR [2]; near-saturating concentration (EC90), Fig. 6",a slower signal activation phase and an even slower signal termination phase
same,ligand efficacy class,wild-type turkey β1-AR [3],partial agonist
